Measured values as given in ChEMBL document CHEMBL1136726, “Synthesis and characterization of iodine-123 labeled 2beta-carbomethoxy-3beta-(4'-((Z)-2-iodoethenyl)phenyl)nortropane. A ligand for in vivo imaging of serotonin transporters by single-photon-emission tomography” (J Med Chem, 2003).

Tests used:
[1] = molecular target: T1, Sodium-dependent serotonin transporter (Homo sapiens, UniProt P31645); assay: Binding affinity towards serotonin transporter (SERT) by using [3H]paroxetine as radioligand
T1 sequence (P31645 whole entry): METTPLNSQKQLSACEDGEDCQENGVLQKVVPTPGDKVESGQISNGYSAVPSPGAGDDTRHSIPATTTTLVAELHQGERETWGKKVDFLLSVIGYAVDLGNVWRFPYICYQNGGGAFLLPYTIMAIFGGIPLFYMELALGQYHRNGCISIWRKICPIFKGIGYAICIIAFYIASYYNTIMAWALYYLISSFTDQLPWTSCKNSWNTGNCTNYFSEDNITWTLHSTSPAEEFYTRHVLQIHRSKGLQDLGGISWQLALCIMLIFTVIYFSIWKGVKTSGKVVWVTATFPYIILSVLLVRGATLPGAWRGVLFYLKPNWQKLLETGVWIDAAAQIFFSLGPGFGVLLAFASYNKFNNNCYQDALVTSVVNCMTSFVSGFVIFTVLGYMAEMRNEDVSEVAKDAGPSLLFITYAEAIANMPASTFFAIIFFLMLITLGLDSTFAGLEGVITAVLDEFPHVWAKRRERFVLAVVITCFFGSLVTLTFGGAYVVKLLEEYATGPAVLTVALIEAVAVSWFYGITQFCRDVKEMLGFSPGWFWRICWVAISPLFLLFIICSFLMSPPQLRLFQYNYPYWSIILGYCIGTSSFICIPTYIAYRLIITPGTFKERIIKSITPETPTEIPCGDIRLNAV

[2] = molecular target: T2, Sodium-dependent dopamine transporter (Homo sapiens, UniProt Q01959); assay: In vitro competitive binding versus [N-methyl-3H]WIN-35428 in murine kidney cells transfected with cDNA for human dopamine transporter (DAT); assay type: cell-based
T2 sequence (Q01959 whole entry): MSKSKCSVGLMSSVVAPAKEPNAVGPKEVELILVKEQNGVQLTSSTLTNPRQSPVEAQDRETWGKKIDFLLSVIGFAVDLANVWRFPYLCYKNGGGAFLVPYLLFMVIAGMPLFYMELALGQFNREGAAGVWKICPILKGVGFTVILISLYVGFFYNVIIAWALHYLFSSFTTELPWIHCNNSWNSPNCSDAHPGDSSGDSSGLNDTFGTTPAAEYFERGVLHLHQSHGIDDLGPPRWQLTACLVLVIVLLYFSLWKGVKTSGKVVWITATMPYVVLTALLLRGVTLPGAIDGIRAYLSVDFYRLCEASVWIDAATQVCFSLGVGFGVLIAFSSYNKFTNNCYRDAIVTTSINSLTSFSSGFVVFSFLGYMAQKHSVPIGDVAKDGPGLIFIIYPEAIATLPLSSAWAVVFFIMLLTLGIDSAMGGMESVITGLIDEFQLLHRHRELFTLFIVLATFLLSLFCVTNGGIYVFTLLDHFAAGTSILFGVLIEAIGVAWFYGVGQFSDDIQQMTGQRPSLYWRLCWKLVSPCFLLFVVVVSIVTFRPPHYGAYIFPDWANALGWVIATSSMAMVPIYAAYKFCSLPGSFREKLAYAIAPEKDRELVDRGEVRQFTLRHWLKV

[3] = molecular target: Sodium-dependent noradrenaline transporter (Homo sapiens, UniProt P23975); assay: In vitro competitive binding versus [3H]- […] in murine kidney cells transfected with cDNA for human norepinephrine transporter (NET); assay type: cell-based
Sequence of Sodium-dependent noradrenaline transporter (P23975 whole entry): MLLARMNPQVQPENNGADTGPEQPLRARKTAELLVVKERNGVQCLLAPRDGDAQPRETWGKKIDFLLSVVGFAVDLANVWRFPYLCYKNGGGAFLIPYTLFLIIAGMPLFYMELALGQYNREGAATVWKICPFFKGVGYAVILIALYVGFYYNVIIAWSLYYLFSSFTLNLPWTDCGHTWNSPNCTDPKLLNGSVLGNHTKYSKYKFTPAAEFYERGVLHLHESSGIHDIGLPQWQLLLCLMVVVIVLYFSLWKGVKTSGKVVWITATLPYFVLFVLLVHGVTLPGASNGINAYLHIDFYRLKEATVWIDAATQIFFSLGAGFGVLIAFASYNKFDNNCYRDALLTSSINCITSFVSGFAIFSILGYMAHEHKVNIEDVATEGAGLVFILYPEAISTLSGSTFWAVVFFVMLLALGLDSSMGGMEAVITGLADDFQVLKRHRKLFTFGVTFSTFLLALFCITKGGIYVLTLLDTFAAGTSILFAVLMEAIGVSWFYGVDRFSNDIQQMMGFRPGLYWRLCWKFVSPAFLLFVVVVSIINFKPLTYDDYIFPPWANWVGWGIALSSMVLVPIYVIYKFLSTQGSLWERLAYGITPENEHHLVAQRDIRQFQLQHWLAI

[4] = molecular target: T1, Sodium-dependent serotonin transporter; assay: In vitro competitive binding versus [3H]-citalopram in murine kidney cells transfected with cDNA for human serotonin transporter (SERT); assay type: cell-based
[5] = molecular target: T2, Sodium-dependent dopamine transporter; assay: Binding affinity towards dopamine transporter (DAT) by using [3H]WIN-35428 as radioligand
[6] = molecular target: T1, Sodium-dependent serotonin transporter; assay: In vitro competitive binding versus [3H]citalopram in murine kidney cells transfected with cDNA for human serotonin transporter (SERT); assay type: cell-based
[7] = molecular target: T1, Sodium-dependent serotonin transporter; assay: Binding affinity towards serotonin transporter (SERT)

C=C(C)c1ccc([C@H]2CC3CCC(N3)[C@H]2C(=O)CC)cc1 (stereo not given in full)
IC50 [1]: 0.16 nM

COC(=O)[C@@H]1C2CCC(C[C@@H]1c1ccc(/C=C/I)cc1)N2 (stereo not given in full)
Ki [2]: 1.88 nM | Ki [3]: 32 nM | Ki [4]: 1.15 nM

C/C=C/c1ccc([C@H]2CC3CCC([C@H]2C(=O)OC)N3C)cc1 (stereo not given in full)
IC50 [5]: 28 nM | IC50 [1]: 1.3 nM

COC(=O)[C@@H]1C2CC[C@H](C[C@@H]1c1ccc(I)cc1)N2C
Ki [2]: 0.48 nM | Ki [3]: 1.4 nM | Ki [6]: 0.67 nM | IC50 [7]: 4.2 nM

COC(=O)[C@@H]1C2CCC(C[C@@H]1c1ccc(I)cc1)N2 (stereo not given in full)
Ki [2]: 0.12 nM | IC50 [7]: 0.36 nM

C=Cc1ccc([C@H]2CC3CCC(N3)[C@H]2C(=O)CC)cc1 (stereo not given in full)
IC50 [1]: 0.32 nM

C/C=C\c1ccc([C@H]2CC3CCC([C@H]2C(=O)OC)N3C)cc1 (stereo not given in full)
IC50 [5]: 32 nM | IC50 [1]: 1.15 nM
